Laboratory results taken from PubChem BioAssay AID274 (DTP/NCI, 2004).
Several values for one entry are separate records, joined by “and”; a condition that tells them apart may be missing. Equal entries are not always repeated. Inconclusive results and toxic doses are left out. How the source made its calls: active means survival T/C of 150% or more; inactive means T/C below 125% in these data. Peptide text beside a SMILES is read from it. * marks the point of attachment. Trt = c1ccc(C(c2ccccc2)(c2ccccc2)*)cc1; Cbz = O=C(OCc1ccccc1)*; Bn = c1ccc(C*)cc1; βAla = NCCC(=O)O

Test system: BDF1 mice, Lewis lung carcinoma iv, survival T/C
Experiment: NCI In Vivo Anticancer Drug Screen. Data for tumor model Lewis Lung Carcinoma (intravenous) in B6D2F1 (BDF1) mice
Settings: endpoint: median survival time, higher = longer survival
Procedure: The antitumor activity of compounds was measured in mice bearing transplantable tumors. Survival or tumor size were measured and the results are expressed as the measurement made in the treated group (T) divided by the measurement made in the vehicle treated control group (C). The tumor model used in this assay is Lewis Lung Carcinoma (intravenous) in B6D2F1 (BDF1) mice

[1] = dose: 12.5 mg/kg/injection, schedule: Q01DX009 (ip), vehicle: saline
[2] = dose: 25.0 mg/kg/injection, schedule: Q01DX009 (ip), vehicle: saline
[3] = dose: 2.0 mg/kg/injection, schedule: Q01DX009 (ip), vehicle: saline
[4] = dose: 25.0 mg/kg/injection, schedule: Q01DX009 (ip), vehicle: saline with Tween-80
[5] = dose: 50.0 mg/kg/injection, schedule: Q01DX009 (ip), vehicle: saline with Tween-80
[6] = dose: 100.0 mg/kg/injection, schedule: Q01DX009 (ip), vehicle: saline with Tween-80
[7] = dose: 200.0 mg/kg/injection, schedule: Q01DX009 (ip), vehicle: saline with Tween-80
[8] = dose: 50.0 mg/kg/injection, schedule: Q01DX009 (ip), vehicle: saline
[9] = dose: 50.0 mg/kg/injection, schedule: Q01DX009 (ip), vehicle: Klucel (hydroxypropylcellulose) (HPC)
[10] = dose: 100.0 mg/kg/injection, schedule: Q01DX009 (ip), vehicle: Klucel (hydroxypropylcellulose) (HPC)
[11] = dose: 200.0 mg/kg/injection, schedule: Q01DX009 (ip), vehicle: Klucel (hydroxypropylcellulose) (HPC)
[12] = dose: 100.0 mg/kg/injection, schedule: Q01DX009 (ip), vehicle: saline

Measured: T/C

CCOC(=O)C(N)C[S][Sn]([CH3])([CH3])[Cl] (centres undefined)
inactive: dose: 6.25 mg/kg/injection, schedule: Q01DX009 (ip), vehicle: saline 100 % of control | [1] 102 % of control | [2] 95 % of control

Cc1c(N)nc([C@H](CC(N)=O)NC[C@H](N)C(N)=O)nc1C(=O)N[C@H](C(=O)N[C@H](C)[C@@H](O)[C@H](C)C(=O)N[C@H](C(=O)NCCc1nc(-c2nc(C(=O)NCCC[S+](C)C)cs2)cs1)[C@@H](C)O)C(OC1OC(CO)C(O)C(O)C1OC1OC(CO)C(O)C(OC(N)=O)C1O)c1cnc[nH]1 (some centres undefined)
inactive: [3] 113 % of control | dose: 4.0 mg/kg/injection, schedule: Q01DX009 (ip), vehicle: saline 115 % of control | dose: 12.0 mg/kg/injection, schedule: Q04DX003 (ip), vehicle: saline 105 % of control and 115 % of control | dose: 18.0 mg/kg/injection, schedule: Q04DX003 (ip), vehicle: saline 115 % of control (2×) and 116 % of control | dose: 27.0 mg/kg/injection, schedule: Q04DX003 (ip), vehicle: saline 109 % of control | dose: 40.0 mg/kg/injection, schedule: Q04DX003 (ip), vehicle: saline 113 % of control | dose: 60.0 mg/kg/injection, schedule: Q04DX003 (ip), vehicle: saline 115 % of control

CCCCCCCCCCCCOP(N)(=O)OCCCCCCCCCCCC
inactive: [4] 97 % of control | [5] 93 % of control | [6] 91 % of control

O=C1OC(c2ccc(O)cc2)(c2ccc(Oc3ccccc3)cc2)c2ccccc21 (centres undefined)
inactive: [6] 105 % of control | [7] 112 % of control | dose: 400.0 mg/kg/injection, schedule: Q01DX009 (ip), vehicle: saline with Tween-80 99 % of control

CC(=O)OCC1OC(n2ccc(N)nc2=O)C(OC(C)=O)C1OC(C)=O (centres undefined)
inactive: [1] 122 % of control | [2] 98 % of control | [8] 109 % of control

OC(CBr)C(O)C(O)C(O)CBr (centres undefined)
inactive: [9] 117 % of control | [10] 109 % of control | [11] 103 % of control | dose: 400.0 mg/kg/injection, schedule: Q01DX009 (ip), vehicle: Klucel (hydroxypropylcellulose) (HPC) 111 % of control | dose: 800.0 mg/kg/injection, schedule: Q01DX009 (ip), vehicle: Klucel (hydroxypropylcellulose) (HPC) 97 % of control

Nc1nc(=S)c2[nH]cnc2[nH]1
inactive: dose: 0.25 mg/kg/injection, schedule: Q01DX009 (ip), vehicle: saline 105 % of control | dose: 0.5 mg/kg/injection, schedule: Q01DX009 (ip), vehicle: saline 114 % of control | dose: 1.0 mg/kg/injection, schedule: Q01DX009 (ip), vehicle: saline 107 % of control | [3] 92 % of control

Nc1nc2c(ncn2C2OC(CO)C(O)C2N)c(=O)[nH]1 (centres undefined)
inactive: dose: 3.0 mg/kg/injection, schedule: Q01DX009 (ip), vehicle: saline with Tween-80 101 % of control | dose: 6.0 mg/kg/injection, schedule: Q01DX009 (ip), vehicle: saline with Tween-80 110 % of control | dose: 12.0 mg/kg/injection, schedule: Q01DX009 (ip), vehicle: saline with Tween-80 108 % of control | dose: 24.0 mg/kg/injection, schedule: Q01DX009 (ip), vehicle: saline with Tween-80 99 % of control

C[n+]1cccc(NC(=O)c2ccc(NC(=O)C34CCC(C(=O)Nc5ccc(C(=O)Nc6ccc[n+](C)c6)cc5)(CC3)CC4)cc2)c1
inactive: dose: 5.0 mg/kg/injection, schedule: Q01DX009 (ip), vehicle: saline with Tween-80 93 % of control | dose: 10.0 mg/kg/injection, schedule: Q01DX009 (ip), vehicle: saline with Tween-80 99 % of control

CCC1OCCN1C(C)C (centres undefined)
inactive: [2] 95 % of control | [8] 124 % of control

COc1cccc2c1C(=O)c1c(O)c3c(c(O)c1C2=O)C[C@@](O)(/C(C)=N\O)C[C@@H]3OC1CC(N)C(O)C(C)O1 (some centres undefined)
inactive: dose: 3.13 mg/kg/injection, schedule: Q01DX009 (ip), vehicle: water 108 % of control | dose: 6.25 mg/kg/injection, schedule: Q01DX009 (ip), vehicle: water 99 % of control | dose: 12.5 mg/kg/injection, schedule: Q01DX009 (ip), vehicle: water 114 % of control

Nc1ncnc2c1cnn2Cc1ccc(Cl)cc1
inactive: [2] 112 % of control | [8] 98 % of control | [12] 98 % of control | [7] 109 % of control
active: [6] 158 % of control

COC(=O)C(CSC(c1ccccc1)(c1ccccc1)c1ccccc1)NC(=O)C(CSCc1ccccc1)NC(=O)CCNC(=O)OCc1ccccc1 (centres undefined) ({Cbz-βAla}-Cys(Bn)-Cys(Trt)-OMe; configuration not given here)
inactive: dose: 12.5 mg/kg/injection, schedule: Q01DX009 (ip), vehicle: Klucel (hydroxypropylcellulose) (HPC) 104 % of control | dose: 25.0 mg/kg/injection, schedule: Q01DX009 (ip), vehicle: Klucel (hydroxypropylcellulose) (HPC) 96 % of control | [9] 103 % of control | [10] 98 % of control | [11] 97 % of control

O=S(=O)(O)O.[W]
inactive: dose: 0.38 mg/kg/injection, schedule: Q01DX009 (ip), vehicle: saline 102 % of control | dose: 0.75 mg/kg/injection, schedule: Q01DX009 (ip), vehicle: saline 118 % of control | dose: 1.5 mg/kg/injection, schedule: Q01DX009 (ip), vehicle: saline 98 % of control | dose: 3.0 mg/kg/injection, schedule: Q01DX009 (ip), vehicle: saline 119 % of control

O=C1c2ccccc2C(=O)c2c(NCCNCCO)ccc(NCCNCCO)c21
inactive: dose: 1.0 mg/kg/injection, schedule: Q01DX005 (ip), vehicle: saline with Tween-80 119 % of control | dose: 1.0 mg/kg/injection, schedule: Q01DX009 (ip), vehicle: saline with Tween-80 100 % of control | dose: 2.0 mg/kg/injection, schedule: Q01DX005 (ip), vehicle: saline 102 % of control | dose: 2.0 mg/kg/injection, schedule: Q01DX009 (ip), vehicle: saline with Tween-80 110 % of control | dose: 4.0 mg/kg/injection, schedule: Q01DX005 (ip), vehicle: saline with Tween-80 109 % of control | dose: 4.0 mg/kg/injection, schedule: Q01DX009 (ip), vehicle: saline with Tween-80 102 % of control

O=C1C2CC(Cl)C(SSC3CC4C(=O)N(SC(Cl)(Cl)C(Cl)Cl)C(=O)C4CC3Cl)CC2C(=O)N1SC(Cl)(Cl)C(Cl)Cl (centres undefined)
inactive: dose: 6.0 mg/kg/injection, schedule: Q01DX009 (ip), vehicle: Klucel (hydroxypropylcellulose) (HPC) 104 % of control | dose: 12.0 mg/kg/injection, schedule: Q01DX009 (ip), vehicle: Klucel (hydroxypropylcellulose) (HPC) 103 % of control | dose: 24.0 mg/kg/injection, schedule: Q01DX009 (ip), vehicle: Klucel (hydroxypropylcellulose) (HPC) 89 % of control | dose: 48.0 mg/kg/injection, schedule: Q01DX009 (ip), vehicle: Klucel (hydroxypropylcellulose) (HPC) 93 % of control | dose: 96.0 mg/kg/injection, schedule: Q01DX009 (ip), vehicle: Klucel (hydroxypropylcellulose) (HPC) 95 % of control

Cc1cc2nc(Cc3nc4cc(C)c(C)cc4[nH]3)[nH]c2cc1C
inactive: dose: 12.5 mg/kg/injection, schedule: Q01DX009 (ip), vehicle: saline with Tween-80 95 % of control | [4] 109 % of control | [5] 97 % of control and 104 % of control | [6] 100 % of control

COC(OC(CO)C(O)S(=O)(=O)O)C(O)S(=O)(=O)O (centres undefined)
inactive: [1] 105 % of control | [2] 106 % of control | [8] 102 % of control | [12] 99 % of control | dose: 400.0 mg/kg/injection, schedule: Q01DX009 (ip), vehicle: saline 90 % of control

C1OC1CO[C@@H]1CO[C@H]2[C@@H]1OC[C@H]2OCC1CO1 (some centres undefined)
active: [12] 177 % of control
inactive: [1] 113 % of control | [2] 100 % of control | [8] 123 % of control

COc1cccc2c1C(=O)c1c(O)c3c(c(O)c1C2=O)C[C@@](O)(C(=O)CO)C[C@@H]3OC1CC(N)CC(C)O1 (some centres undefined)
inactive: dose: 0.18 mg/kg/injection, schedule: Q01DX009 (ip), vehicle: water 108 % of control | dose: 0.37 mg/kg/injection, schedule: Q01DX009 (ip), vehicle: water 112 % of control
